Data reported in patent US6458840B2, “Use of valproic acid analog for the treatment and prevention of migraine and affective illness” (American Biogenetic Sciences, Inc., priority 1998, dated 2002).
≈ marks a conversion by molar mass, not a printed value. Where “and” joins values, the source holds several entries; their conditions need not be identical. Equal entries are not always repeated. Entries after “also recorded” stand apart in the source; their conditions may differ.

Tests used:
[1] = system: amygdala-kindled seizures; assay: Amygdala-kindling in fully kindled rats (anti-seizure effects); type: in vivo, rat; settings: for afterdisch.dur.1 (ADD1) / afterdisch.dur.2 (ADD2) / afterdisch.thresh. (ADT) / seizure duration1 (SD1) / seizure duration2 (SD2) / seizure severity (SS): 15 min pretreatment, mean (X); for seizure severity (SS): Racine score; for increase of afterdischarge threshold: versus pre-drug control
Method: For implantation of stimulation and recording electrodes, rats were anesthetized with chloral hydrate (360 mg/kg i.p.) and received stereotaxic implantation (according to the surgery methods described in the atlas of Paxinos and Watson [1986]) of one bipolar electrode in the right basolateral amygdala. Coordinates for electrode implantation were AP-2.2 mm, L-4.8 mm, V-8.5 mm. All coordinates were measured from bregma. Skull screws served as the indifferent reference electrode. The electrode assembly was attached to the skull by dental acrylic cement. After a postoperative period of 2 weeks, constant current stimulations (500 μA, 1 ms, monophasic square-wave pulses, 50/s for 1 s) were delivered to the amygdala at intervals of 1/day until ten stage 5 seizures were elicited. The electrical susceptibility of the stimulated region (threshold for induction of afterdischarges) was recorded on the first day of the experiment (initial afterdischarge threshold) as well as after kindling acquisition (with an interval of at least 4 days after the tenth stage 5 seizure) using an ascending staircase procedure. The initial current intensity was 1 OμA, and the current intensity was increased in steps of about 20% of the previous current at intervals of 1 min until an afterdischarge of at least 3 s duration was elicited. […] In addition to afterdischarge threshold, the following parameters of kindled seizures were measured in fully-kindled rats after stimulation with the afterdischarge threshold current: seizure severity was classified according to Racine (1972): 1 -immobility, eye closure, twitching of vibrissae, sniffing, facial clonus; 2-head nodding associated with more severe facial clonus; 3-clonus of one forelimb; 4-rearing, often accompanied by bilateral forelimb clonus; 5-rearing with loss of balance and falling accompanied by generalized clonic seizures. Seizure duration 1 (SD 1) was the duration of limbic (stage 1-2) and/or motor seizures (stage 3-5). Seizure duration 2 (SD 2) included the time of limbic and/or motor seizures plus the adjacent time of immobility. Afterdischarge duration 1 (ADD 1) was the time of spikes in the EEG recorded from the site of stimulation with a frequency of at least 1 /s. Afterdischarge duration 2 (ADD 2) was the total time of spikes occurring in the EEG including those, which followed the ADD 1 with lower frequency and amplitude.
The anti-seizure effects of 2-propyl-4-hexynoic acid and valproate in fully kindled rats were determined in a group of 8-9 rats (no. 784, 785, 787, 788, 789, 790 [had to be taken out of the trial, because of loss of electrodes], 791, 792, 793) with reproducible stage 5 seizures.
Drugs were injected 15 min prior to stimulation intraperitoneally. Control experiments were always performed 2-3 days before each drug experiment. For control determinations, rats received i.p. injections of vehicle (saline) with the pretreatment time of the respective drug experiment. For all drug experiments, at least 4 days were interposed between 2 drug injections in order to avoid alterations in drug potency due to cumulation or tolerance.
The significance of differences between pre-drug control recordings and recordings after drug injection was calculated by the Wilcoxon signed rank test for paired replicates (SigmaStat for Windows, version 1.0).

[2] = Open field observation, behavioral rating of adverse effects; type: in vivo, rat; settings: for antaxia (1-6) / hypolocomotion (1-3) / muscle relaxation (1-3): 13′ after application, mean (X)
Method: Tests included open field observations, rotarod test and body temperature. Tests were always performed in the same manner in control and drug experiments at two different times, just before application of drug or vehicle and 13 minutes after application.
In addition to these quantitative estimations of neurological deficit, behavioral alterations observed after administration of 2-propyl-4-hexynoic acid and valproate noted in the cage and by placing the animals in an open field of 90-100 cm diameter. Muscle tone was estimated by palpation of the abdomen. The extent of deficits in behavior after administration of the compounds was determined by a rating system (Loscher et al. 1987). In short, animals were taken out of the cage, placed in an open field, observed for about 1 minute and rated separately for ataxia, abducted hindlimbs, reduced righting, flat body posture, circling, Straub tail, piloerection, hypolocomotion and hyperlocomotion (abdominal muscle tone was evaluated by palpation at the end of the period of observation). All other parameters except ataxia were scored from 0 to 3: 0-absent; 1-equivocal; 2-present; 3- intense. For ataxia (06): 1 -slight ataxia in hind-legs (tottering of the hind quarters); 2-more pronounced ataxia with dragging of hind legs; 3-further increase of ataxia and more pronounced dragging of hind legs; 4-marked ataxia, animals lose balance during forward locomotion; 5- very marked ataxia with frequent loss of balance during forward locomotion; 6-permanent loss of righting reflexes, but animal still attempts to move forward. Rectal body temperature was measured by an electronic thermometer. Body weight of the animals was recorded once daily before drug injection. Significance of differences in behavior between pre-drug and post-drug data determined in the same group of animals was calculated by the Wilcoxon signed rank test for paired replicates and for body temperature by Student's paired t-test (SigmaStat for Windows, version 1.0). Differences in body temperature were always compared only within the experimental day with the pre-drug time as control to one post-drug time.

PTZ induced seizures = settings: literature / earlier application; cited from earlier work
Drug solubility test = type: physicochemical; settings: read-out: concentration in drug solubility test
[3] = Plasma drug levels after treatment and kindling stimulation; type: in vivo, rat; settings: same dose of both drugs, immediately after treatment and kindling stimulation; for Plasma Drug Levels, Average: average of 8 rats; for Plasma Drug Levels, individual rats: each line one rat (784-793)
Excerpt: Since there were differences in potencies between both compounds, plasma was obtained from rats immediately after treatment and kindling stimulation during one dose experiment.

[4] = 100 mg/kg i.p., listed as valproate
[5] = 200 mg/kg i.p., listed as valproate

CC#CCC(CCC)C(=O)O (stereo not shown) [2-propyl-4-hexynoic acid, 2-n-propyl-4-hexynoic acid]
effects against amygdala-kindled seizures, in words ([1]; 50 mg/kg i.p.): no significant effects | afterdisch.dur.1 (ADD1) ([1]; 50 mg/kg i.p.): 93.11 s | afterdisch.dur.2 (ADD2) ([1]; 50 mg/kg i.p.): 93.11 s | afterdisch.thresh. (ADT) ([1]; 50 mg/kg i.p.): 37.33 μA | seizure duration1 (SD1) ([1]; 50 mg/kg i.p.): 78.44 s | seizure duration2 (SD2) ([1]; 50 mg/kg i.p.): 234.33 s | seizure severity (SS) ([1]; 50 mg/kg i.p.): 4.89 score | afterdisch.dur.1 (ADD1) ([1]; 75 mg/kg i.p.): 16.25 s | afterdisch.dur.2 (ADD2) ([1]; 75 mg/kg i.p.): 16 s and 16.25 s | afterdisch.thresh. (ADT) ([1]; 75 mg/kg i.p.): 88.50 μA | seizure duration1 (SD1) ([1]; 75 mg/kg i.p.): 16 s and 16.25 s | seizure duration2 (SD2) ([1]; 75 mg/kg i.p.): 16.25 s | seizure severity (SS) ([1]; 75 mg/kg i.p.): 2.3 score and 2.25 score | increase of afterdischarge threshold ([1]; 75 mg/kg i.p.): 109% | seizure duration1 (SD1) ([1]; 100 mg/kg i.p.): 47 s | seizure severity (SS) ([1]; 100 mg/kg i.p.): 3.6 score | increase of afterdischarge threshold ([1]; 100 mg/kg i.p.): 160% | afterdisch.dur.2 (ADD2) ([1]; 200 mg/kg i.p.): 24 s | seizure duration1 (SD1) ([1]; 200 mg/kg i.p.): 19 s | seizure severity (SS) ([1]; 200 mg/kg i.p.): 1.8 score | increase of afterdischarge threshold ([1]; 200 mg/kg i.p.): 209% | afterdisch.thresh. (ADT; μA) ([1]; 200 mg/kg, mean (X) of 8 kindled rats, control mean 57.88): 178.75 μA | seizure severity (SS; score) ([1]; 200 mg/kg, mean of 8 rats, control mean 4.63): 1.75 score | seizure duration1 (SD1; sec) ([1]; 200 mg/kg, mean of 8 rats, control mean 61.63): 19.25 s | afterdisch.dur.1 (ADD1;sec) ([1]; 200 mg/kg, mean of 8 rats, control mean 77.25): 23.50 s | afterdisch.dur.2 (ADD2; sec) ([1]; 200 mg/kg, mean of 8 rats, control mean 88.13): 23.50 s | seizure duration2 (SD2; sec) ([1]; 200 mg/kg, mean of 8 rats, control mean 197.88): 36.38 s | antaxia (1-6) ([2]; 200 mg/kg i.p.): 1.5 score | hypolocomotion (1-3) ([2]; 200 mg/kg i.p.): 1.4 score | muscle relaxation (1-3) ([2]; 200 mg/kg i.p.): 1.4 score | BEHAVIOR (score) antaxia (1-6) ([2]; 200 mg/kg, 13′, mean of 8 rats): 1.50 score | BEHAVIOR (score) hypolocomotion (1-3) ([2]; 200 mg/kg, 13′, mean of 8 rats): 1.38 score | BEHAVIOR (score) muscle relaxation (1-3) ([2]; 200 mg/kg, 13′, mean of 8 rats): 1.38 score | BEHAVIOR (score) red. righting (1-3) ([2]; 200 mg/kg, 13′, mean of 8 rats): 0.75 score | adverse effects, in words ([2]; doses 50, 75, 100, 200 mg/kg i.p.): only observed at the highest dose of 200 mg/kg and were milder than with valproate | antiepileptic effect in PTZ test, in words (PTZ induced seizures): effective antiepileptic with a longer duration of activity and greatly reduced sedative and teratogenic effects compared to valproic acid; also recorded: improved antiepileptic compared to valproic acid | solubility (Drug solubility test): 18.5 mg/mL (≈ 120 mM) | Plasma Drug Levels, Average [3]: 198.37 µg/mL | Plasma Drug Levels, individual rats [3]: 209.31 µg/mL and 201.34 µg/mL and 218.87 µg/mL and 154.89 µg/mL and 220.70 µg/mL and 180.10 µg/mL and 170.68 µg/mL and 225.95 µg/mL

CCCC(CCC)C(=O)O [Valproate, valproic acid]
afterdisch.dur.1 (ADD1) ([1]; 50 mg/kg i.p.): 76.67 s | afterdisch.dur.2 (ADD2) ([1]; 50 mg/kg i.p.): 76.67 s | afterdisch.thresh. (ADT) ([1]; 50 mg/kg i.p.): 60.44 μA | seizure duration1 (SD1) ([1]; 50 mg/kg i.p.): 72.22 s | seizure duration2 (SD2) ([1]; 50 mg/kg i.p.): 231.67 s | seizure severity (SS) ([1]; 50 mg/kg i.p.): 4.33 score | increase of afterdischarge threshold ([1]; 50 mg/kg i.p.): 109% | afterdisch.dur.1 (ADD1) ([1]; 75 mg/kg i.p.): 67.25 s | afterdisch.dur.2 (ADD2) ([1]; 75 mg/kg i.p.): 67.25 s | afterdisch.thresh. (ADT) ([1]; 75 mg/kg i.p.): 73.13 μA | seizure duration1 (SD1) ([1]; 75 mg/kg i.p.): 54.00 s | seizure duration2 (SD2) ([1]; 75 mg/kg i.p.): 250.75 s | seizure severity (SS) ([1]; 75 mg/kg i.p.): 4.13 score | increase of afterdischarge threshold ([1]; 75 mg/kg i.p.): 77% | afterdisch.dur.1 (ADD1) ([1]; 100 mg/kg i.p.): 20.00 s | afterdisch.dur.2 (ADD2) ([1]; 100 mg/kg i.p.): 20.00 s | afterdisch.thresh. (ADT) ([1]; 100 mg/kg i.p.): 151.67 μA | seizure duration1 (SD1) ([1]; 100 mg/kg i.p.): 18.22 s | seizure duration2 (SD2) ([1]; 100 mg/kg i.p.): 43.44 s | seizure severity (SS) ([1]; 100 mg/kg i.p.): 3.00 score | seizure severity (SS) [1, 4]: 3.0 score | afterdisch.dur.2 (ADD2) [1, 4]: 20 s | seizure duration1 (SD1) [1, 4]: 18 s | increase of afterdischarge threshold ([1]; 100 mg/kg i.p.): 319% | afterdisch.dur.1 (ADD1) ([1]; 200 mg/kg i.p.): 8.75 s | afterdisch.dur.2 (ADD2) ([1]; 200 mg/kg i.p.): 8.75 s | afterdisch.thresh. (ADT) ([1]; 200 mg/kg i.p.): 496.25 μA | seizure duration1 (SD1) ([1]; 200 mg/kg i.p.): 8.75 s | seizure duration2 (SD2) ([1]; 200 mg/kg i.p.): 8.75 s | seizure severity (SS) ([1]; 200 mg/kg i.p.): 1.63 score | seizure severity (SS) [1, 5]: 1.6 score | afterdisch.dur.2 (ADD2) [1, 5]: 9 s | seizure duration1 (SD1) [1, 5]: 9 s | increase of afterdischarge threshold ([1]; 200 mg/kg i.p.): 970% | effects against amygdala-kindled seizures, in words ([1]; all doses tested: 50, 75, 100, 200 mg/kg i.p.): significant effects against amygdala-kindled seizures | alterations in behavior, in words ([2]; 100 mg/kg i.p.): No alterations | further adverse effects, in words ([2]; 200 mg/kg i.p.): wet dog shakes | antaxia (1-6) ([2]; 200 mg/kg i.p.): 2.75 score | hypolocomotion (1-3) ([2]; 200 mg/kg i.p.): 1.00 score | muscle relaxation (1-3) ([2]; 200 mg/kg i.p.): 2.00 score | antaxia (1-6) [2, 5]: 2.8 score | hypolocomotion (1-3) [2, 5]: 1.0 score | muscle relaxation (1-3) [2, 5]: 2.0 score | solubility (Drug solubility test): 20 mg/mL (≈ 139 mM) | Plasma Drug Levels, Average [3]: 182.26 µg/mL | Plasma Drug Levels, individual rats [3]: 197.82 µg/mL and 189.87 µg/mL and 168.89 µg/mL and 173.37 µg/mL and 205.44 µg/mL and 174.06 µg/mL and 157.83 µg/mL and 190.82 µg/mL
